Consider 2 molecules from paper PMC3271064, “Discrete Cyclic di-GMP-Dependent Control of Bacterial Predation versus Axenic Growth in Bdellovibrio bacteriovorus” (PLoS Pathogens, 2012).

One experiment addresses T1, DgcC (Bd1434) (Bdellovibrio bacteriovorus, UniProt Q6MN29).
T1 construct: MBP fusion, expressed in and purified from E. coli; MBP kept; natural GGEEF motif
T1 sequence (Q6MN29 1-408): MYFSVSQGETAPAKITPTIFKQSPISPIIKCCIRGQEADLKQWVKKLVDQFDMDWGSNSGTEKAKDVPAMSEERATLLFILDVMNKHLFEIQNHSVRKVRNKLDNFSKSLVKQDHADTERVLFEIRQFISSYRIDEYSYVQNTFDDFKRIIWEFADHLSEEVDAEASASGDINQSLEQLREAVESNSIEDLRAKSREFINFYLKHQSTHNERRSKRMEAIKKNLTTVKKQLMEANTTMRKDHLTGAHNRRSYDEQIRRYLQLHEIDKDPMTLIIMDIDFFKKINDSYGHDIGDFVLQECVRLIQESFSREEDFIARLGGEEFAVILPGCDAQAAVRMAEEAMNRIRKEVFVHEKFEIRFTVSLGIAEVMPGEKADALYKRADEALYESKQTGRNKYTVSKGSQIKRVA
Nature of the experiment: diguanylyl cyclase assay, HPLC. Particulars: MBP-DgcC. The experiment is classed as biochemical.

The next experiment deals with T2, DgcA (Bd0367) (Bdellovibrio bacteriovorus, UniProt Q6MQU2).
T2 construct: gene pleD; MBP fusion, expressed in and purified from E. coli; MBP kept
T2 sequence (Q6MQU2 1-343): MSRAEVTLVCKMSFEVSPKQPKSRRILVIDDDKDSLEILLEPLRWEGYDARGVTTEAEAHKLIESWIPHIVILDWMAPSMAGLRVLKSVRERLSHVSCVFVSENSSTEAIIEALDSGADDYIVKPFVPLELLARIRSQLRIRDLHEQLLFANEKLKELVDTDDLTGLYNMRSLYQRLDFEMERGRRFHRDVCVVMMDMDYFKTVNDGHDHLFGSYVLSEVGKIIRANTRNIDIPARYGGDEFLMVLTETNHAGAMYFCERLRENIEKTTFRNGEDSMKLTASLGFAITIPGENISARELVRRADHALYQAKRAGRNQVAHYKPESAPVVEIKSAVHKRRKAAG
Nature of the experiment: diguanylyl cyclase assay, HPLC. It counts as biochemical. The note with it: MBP-DgcA.

A further experiment concerns the target T3, CdgA (Bd3125) (Bdellovibrio bacteriovorus, UniProt Q6MIM9).
T3 construct: MBP fusion, expressed in and purified from E. coli; MBP kept; degenerate GVNEF motif is natural
T3 sequence (Q6MIM9 1-496): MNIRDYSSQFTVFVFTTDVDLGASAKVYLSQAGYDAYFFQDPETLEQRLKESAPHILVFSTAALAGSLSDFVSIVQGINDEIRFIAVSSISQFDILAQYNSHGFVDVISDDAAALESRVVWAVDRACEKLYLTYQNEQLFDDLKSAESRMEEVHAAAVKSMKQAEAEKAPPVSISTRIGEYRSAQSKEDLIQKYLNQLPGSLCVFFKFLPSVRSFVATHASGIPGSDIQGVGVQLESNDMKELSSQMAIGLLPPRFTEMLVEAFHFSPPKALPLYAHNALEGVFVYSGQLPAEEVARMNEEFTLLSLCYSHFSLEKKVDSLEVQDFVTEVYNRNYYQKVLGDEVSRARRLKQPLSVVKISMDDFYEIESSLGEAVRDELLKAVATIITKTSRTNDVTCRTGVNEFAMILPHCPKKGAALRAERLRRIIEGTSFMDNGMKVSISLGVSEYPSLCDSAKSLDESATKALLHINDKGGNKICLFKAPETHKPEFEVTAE
As to the kind of experiment: equilibrium dialysis. The note with it: read-out: apparent Kd. The experiment is classed as binding. For orientation: In equilibrium dialysis only unbound substance equilibrates across the membrane.

A further experiment deals with T4, DgcB (Bd0742) (Bdellovibrio bacteriovorus, UniProt Q6MPU8).
T4 construct: MBP fusion, expressed in and purified from E. coli; MBP kept; copurifies with c-di-GMP
T4 sequence (Q6MPU8 1-320): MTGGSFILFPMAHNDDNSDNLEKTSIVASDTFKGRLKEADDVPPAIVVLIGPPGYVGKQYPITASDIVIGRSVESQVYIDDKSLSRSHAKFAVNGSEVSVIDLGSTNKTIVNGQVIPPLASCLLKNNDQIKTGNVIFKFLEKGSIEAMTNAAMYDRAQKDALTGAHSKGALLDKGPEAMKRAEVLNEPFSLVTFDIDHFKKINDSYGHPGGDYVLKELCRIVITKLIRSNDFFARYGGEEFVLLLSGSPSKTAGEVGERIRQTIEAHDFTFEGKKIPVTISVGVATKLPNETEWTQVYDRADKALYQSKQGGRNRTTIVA
As to the kind of experiment: diguanylyl cyclase assay, HPLC. It counts as biochemical. Particulars: MBP-DgcB; activity only after about 30 min incubation at 37°C.

`Nc1nc2c(ncn2[C@@H]2O[C@@H]3COP(=O)(O)O[C@H]4[C@@H](O)[C@H](n5cnc6c(=O)[nH]c(N)nc65)O[C@@H]4COP(=O)(O)O[C@H]3[C@H]2O)c(=O)[nH]1` [c-di-GMP]: the “diguanylyl cyclase assay, HPLC” value on DgcC (Bd1434) (from GTP) was “HPLC profiles show peaks of c-di-GMP (product) and GTP (substrate)”; on DgcA (Bd0367) (from GTP), “HPLC profiles show peaks of c-di-GMP (product) and GTP (substrate)”. At CdgA (Bd3125), the Kd was roughly 2 µM.
Consider `Nc1nc2c(ncn2[C@@H]2O[C@H](COP(=O)(O)OP(=O)(O)OP(=O)(O)O)[C@@H](O)[C@H]2O)c(=O)[nH]1` [GTP], for which the “diguanylyl cyclase assay, HPLC” value at DgcC (Bd1434) was “DgcA, DgcB and DgcC proved to function as diguanylyl cyclases (Figure 1A–C)”; on DgcB (Bd0742) it was “DgcA, DgcB and DgcC proved to function as diguanylyl cyclases (Figure 1A–C)”; on DgcA (Bd0367) it was “DgcA, DgcB and DgcC proved to function as diguanylyl cyclases (Figure 1A–C)”.
